Consider three compounds from patent US8709745B2, “Methods for isolating ligands of the human bitter taste receptor TAS2R49” (Deutsches Institut für Ernährungsforschung Potsdam-Rehbrücke, priority 2009, dated 2014).

Broadly, the EC50 is the concentration that produces a half-maximal response.

For data set [1] the following is noted: vendor property list; cited from earlier work.
Data set [2] deals with T1, TAS2R49 human bitter taste receptor (Homo sapiens, UniProt P59543, K79E).
T1 construct: first 45 amino acids of rat somatostatin receptor type 3 (SST), membrane-targeting signal (N); expressed in transfected cells; host or cells: HEK-293T cells stably expressing the chimeric G-protein alpha subunit Gα16gust44; vector pcDNA5/FRT
T1 sequence (P59543 1-309 K79E): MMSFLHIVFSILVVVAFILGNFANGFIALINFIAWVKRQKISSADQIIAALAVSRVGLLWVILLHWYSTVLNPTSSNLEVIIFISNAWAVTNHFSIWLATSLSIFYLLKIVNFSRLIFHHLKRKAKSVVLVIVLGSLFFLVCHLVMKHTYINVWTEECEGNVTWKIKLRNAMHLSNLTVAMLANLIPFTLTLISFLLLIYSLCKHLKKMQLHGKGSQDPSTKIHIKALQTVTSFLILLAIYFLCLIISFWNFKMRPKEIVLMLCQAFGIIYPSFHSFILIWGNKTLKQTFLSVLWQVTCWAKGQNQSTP
As to the kind of experiment: FLIPR calcium assay in HEK-293T Gα16gust44 cells transiently transfected with SST-hTAS2R49-HSV. It is filed as cell-based. Conditions: for activation of hTAS2R49 (calcium response): hTAS2R49 transfected vs mock transfected cells. The text has this:
The TAS2R49 human bitter taste receptor was functional expressed in a heterologouse cell system. Therefore, the coding region for this hTAS2R was cloned into a vector (pcDNA5/FRT, Invitrogen, San Diego, Calif.). The construct includes the sequence for the first 45 amino acids of a rat somatostatin receptor type 3 (SST) coupled to the N-terminal end of the receptor for an improvement of receptor membrane targeting. At the C-terminus of the bitter taste receptor a herpes simplex virus glycoprotein D (HSV) epitope was added for immunocytochemical detection. The SST-hTAS2R49-HSV pcDNA5/FRT plasmid construct was transiently transfected into HEK-293T cells stably expressing the chimeric G-protein a subunit Gal6gust44. An empty pcDNA5/FRT plasmid /vector were used as negative control. The cells were seeded into 96-well plates (Greiner Bio-One, Frickenhausen, Germany) under conventional cell culture conditions (Dulbecco's Modified Eagle Medium (DMEM)/10% FCS/1% penicillin/streptomycin; 37° C., 5% CO2, 95% humidity) and 24-26 h later transfected with 150 ng plasmid DNA and 300 ng Lipofectamine 2000 (Invitrogen, San Diego, Calif.). 24-26 h later the cells were loaded with the calcium sensitive dye Fluo4-acetoxymethyl (Molecular Probes, Karlsruhe, Germany) with a final concentration of 20 μM in serum-free DMEM medium. The organic anion-transport inhibitor probenecid (Sigma Aldrich, München, Germany) was added to the dye/medium solution to reduce leakage of the indicator after cleavage of the ester bonds. 1 h after loading, the well plates were washed 3 times with 30 min incubation between the last second wash steps (protected from light) by Denley cell washer (Thermo Fisher Scientific Inc., Waltham, Mass.). The washing solution contains 130 mM NaCl, 5 mM KCl, 10 mM HEPES with pH 7.4, 2 mM CaCl2, and 10 mM Glucose. The agonist was solved and diluted in wash solution.
The elevation of the cytosolic calcium concentration was measured after application of the test substances using the Fluorometric Imaging Plate Reader (FLIPR, Molecular Devices, Munich, Germany) at […]. The vitality of the cells was verified by a second application of 100 nM somatostatin-14, an agonist of the endogenous […] somatostatin receptor type 2. To exclude unspecific responses and false positive signals, mock transfected cells were always measured on the same plate with the same compound concentration each. All experiments were performed at least twice. For the calculation of the dose-response function, the signals of the wells with the same concentration of the agonist were automatically normalized with the control wells (mock transfection, Fmock) by FLIPR384® software (Molecular Devices, Munich, Germany). To consider the dye loading efficiency and the cell number the background fluorescence was measured for each plate/each well and denoted as signal test. […] The calculation of the EC50 values were prepared in SigmaPlot 9.0 by nonlinear regression to the function f(x)=100/[1+(EC50/x)nH], where x is the agonist concentration and nH is the Hill coefficient.

Where [3] appears, read: averaged dose response curve (n=5), FIG. 1.

“Also recorded” adds a separate entry of the source. Structures can show the parent of a compound that is named as a salt.

For the compound `O=C(O)c1cc(=O)c2c(OCC(O)COc3cccc4oc(C(=O)O)cc(=O)c34)cccc2o1` [Cromolyn sodium, disodium salt of 5,5′-[(2-hydroxytrimethylene)dioxy]bis[4-oxo-4H-1-benzopyran-2-carboxylate]], the water solubility result in data set [1] was “water-soluble”.
Consider `O=C(O)c1cc(=O)c2c(OCC(O)COc3cccc4oc(C(=O)O)cc(=O)c34)cccc2o1` [cromolyn], for which, in data set [2] (setting [3]), the half-maximal effective concentration (EC50) was found to be 42 ± 13 µM and the threshold was about 0.01 mM. The “activation of hTAS2R49 (calcium response)” value in data set [2] is “responded robustly; also recorded: effective agonist of hTAS2R49”.
As to `OC(CCCN1CCCCC1)(c1ccccc1)c1ccccc1` [diphenidol], the entries for the “activation of hTAS2R49 (calcium response)” value in data set [2] and in data set [2] (listed as Diphenidol) were “activated the receptor” and “agonist for hTAS2R49”, respectively.
